Source: PubChem BioAssay (NCI)
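Method: 48-hour compound exposure of cells in 96-well plates, five concentrations, linear interpolation of endpoints. Abbreviation: GI50, concentration required for 50% inhibition of growth. TGI: total growth inhibition.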

Key:
Assay in all cases: NCI tumour cell line growth inhibition, 48 h
MALME-3M melanoma = tested on: MALME-3M melanoma
786-0 renal = tested on: 786-0 renal
A498 renal = tested on: A498 renal
DU-145 prostate = tested on: DU-145 prostate
SR leukemia = tested on: SR leukemia
T-47D breast = tested on: T-47D breast
CCRF-CEM leukemia = tested on: CCRF-CEM leukemia
M14 melanoma = tested on: M14 melanoma
SF-295 CNS = tested on: SF-295 CNS
EKVX NSCLC = tested on: EKVX NSCLC
K-562 leukemia = tested on: K-562 leukemia
MDA-MB-435 = tested on: MDA-MB-435
PC-3 prostate = tested on: PC-3 prostate
UACC-257 melanoma = tested on: UACC-257 melanoma
RPMI-8226 leukemia = tested on: RPMI-8226 leukemia
OVCAR-3 ovarian = tested on: OVCAR-3 ovarian
NCI-H460 lung = tested on: NCI-H460 lung
CAKI-1 renal = tested on: CAKI-1 renal
MCF7 breast = tested on: MCF7 breast
HCC-2998 colon = tested on: HCC-2998 colon
HT29 colon = tested on: HT29 colon
MDA-MB-231 breast = tested on: MDA-MB-231 breast
NCI-H226 lung = tested on: NCI-H226 lung
U251 CNS = tested on: U251 CNS
SK-MEL-2 melanoma = tested on: SK-MEL-2 melanoma
RXF 393 renal = tested on: RXF 393 renal
UACC-62 melanoma = tested on: UACC-62 melanoma
SK-OV-3 ovarian = tested on: SK-OV-3 ovarian
TK-10 renal = tested on: TK-10 renal
A549 NSCLC = tested on: A549 NSCLC
SNB-19 CNS = tested on: SNB-19 CNS
COLO 205 colon = tested on: COLO 205 colon
SF-539 CNS = tested on: SF-539 CNS
UO-31 renal = tested on: UO-31 renal
SNB-75 CNS = tested on: SNB-75 CNS
HOP-62 NSCLC = tested on: HOP-62 NSCLC
HCT-116 colon = tested on: HCT-116 colon
NCI-H522 lung = tested on: NCI-H522 lung
SK-MEL-5 melanoma = tested on: SK-MEL-5 melanoma
ACHN renal = tested on: ACHN renal
MDA-MB-468 breast = tested on: MDA-MB-468 breast
LOX IMVI melanoma = tested on: LOX IMVI melanoma
NCI-H23 lung = tested on: NCI-H23 lung
KM12 colon = tested on: KM12 colon
BT-549 breast = tested on: BT-549 breast
HOP-92 NSCLC = tested on: HOP-92 NSCLC
HL-60(TB) leukemia = tested on: HL-60(TB) leukemia
IGROV1 ovarian = tested on: IGROV1 ovarian
SK-MEL-28 melanoma = tested on: SK-MEL-28 melanoma
OVCAR-5 ovarian = tested on: OVCAR-5 ovarian
NCI/ADR-RES ovarian = tested on: NCI/ADR-RES ovarian
HCT-15 colon = tested on: HCT-15 colon
MOLT-4 leukemia = tested on: MOLT-4 leukemia
OVCAR-8 ovarian = tested on: OVCAR-8 ovarian
HS 578T breast = tested on: HS 578T breast
SN12C renal = tested on: SN12C renal
SF-268 CNS = tested on: SF-268 CNS
OVCAR-4 ovarian = tested on: OVCAR-4 ovarian
SW-620 colon = tested on: SW-620 colon

Work on `COc1cc(Nc2nc(O)c(/C=C3\C=Nc4ccccc43)s2)cc(OC)c1OC` yielded a GI50 (MALME-3M melanoma) of 2.01 µM, a TGI (MALME-3M melanoma) of 15.2 µM and a GI50 (786-0 renal) of 2.72 µM. The TGI (786-0 renal) was 11.9 µM, the GI50 (A498 renal) was 10.2 µM and the TGI (A498 renal) was 24.6 µM. For the same molecule, the GI50 (DU-145 prostate) was 4.63 µM, the TGI (DU-145 prostate) was 17.2 µM and the GI50 (SR leukemia) was 0.394 µM. It also gave a TGI (SR leukemia) of 29.9 µM, a GI50 (T-47D breast) of 3.58 µM and a TGI (T-47D breast) of 19.7 µM. For the same molecule, the GI50 (CCRF-CEM leukemia) was 2.09 µM, the TGI (CCRF-CEM leukemia) was over 100 µM and the GI50 (M14 melanoma) was 2.02 µM. It also gave a TGI (M14 melanoma) of 15.9 µM, a GI50 (SF-295 CNS) of 2.27 µM and a TGI (SF-295 CNS) of 13.4 µM. For the same molecule, the GI50 (EKVX NSCLC) was 8.02 µM, the TGI (EKVX NSCLC) was 22.2 µM and the GI50 (K-562 leukemia) was 0.526 µM. The TGI (K-562 leukemia) was 31.1 µM, the GI50 (MDA-MB-435) was 0.28 µM and the TGI (MDA-MB-435) was 0.94 µM. For the same molecule, the GI50 (PC-3 prostate) was 2.59 µM, the TGI (PC-3 prostate) was 22.6 µM and the GI50 (UACC-257 melanoma) was 5.18 µM. It also gave a TGI (UACC-257 melanoma) of 21.1 µM, a GI50 (RPMI-8226 leukemia) of 5.73 µM and a TGI (RPMI-8226 leukemia) of over 100 µM. The GI50 (OVCAR-3 ovarian) was 0.517 µM, the TGI (OVCAR-3 ovarian) was 5.32 µM and the GI50 (NCI-H460 lung) was 2.1 µM. The TGI (NCI-H460 lung) was 14.3 µM, the GI50 (CAKI-1 renal) was 0.84 µM and the TGI (CAKI-1 renal) was 10.3 µM. It also gave a GI50 (MCF7 breast) of 1.79 µM, a TGI (MCF7 breast) of 11.9 µM and a GI50 (HCC-2998 colon) of 6.36 µM. It also gave a TGI (HCC-2998 colon) of 20.7 µM, a GI50 (HT29 colon) of 0.923 µM and a TGI (HT29 colon) of 10.1 µM. The GI50 (MDA-MB-231 breast) was 4.77 µM, the TGI (MDA-MB-231 breast) was 18.8 µM and the GI50 (NCI-H226 lung) was 3.18 µM. It also gave a TGI (NCI-H226 lung) of 17.4 µM, a GI50 (U251 CNS) of 3.27 µM and a TGI (U251 CNS) of 15.7 µM. It also gave a GI50 (SK-MEL-2 melanoma) of 1.45 µM, a TGI (SK-MEL-2 melanoma) of 12.2 µM and a GI50 (RXF 393 renal) of 1 µM. The TGI (RXF 393 renal) was 5.8 µM, the GI50 (UACC-62 melanoma) was 4.75 µM and the TGI (UACC-62 melanoma) was 19.7 µM. For the same molecule, the GI50 (SK-OV-3 ovarian) was 2.56 µM, the TGI (SK-OV-3 ovarian) was 10.3 µM and the GI50 (TK-10 renal) was 8.56 µM. The TGI (TK-10 renal) was 22.8 µM, the GI50 (A549 NSCLC) was 2.84 µM and the TGI (A549 NSCLC) was 16.5 µM. It also gave a GI50 (SNB-19 CNS) of 6.6 µM, a TGI (SNB-19 CNS) of 21.2 µM and a GI50 (COLO 205 colon) of 3.14 µM. The TGI (COLO 205 colon) was 16.4 µM, the GI50 (SF-539 CNS) was 2.49 µM and the TGI (SF-539 CNS) was 9.95 µM. The GI50 (UO-31 renal) was 3.43 µM, the TGI (UO-31 renal) was 13.7 µM and the GI50 (SNB-75 CNS) was 1.24 µM. For the same molecule, the TGI (SNB-75 CNS) was 3.63 µM, the GI50 (HOP-62 NSCLC) was 2.69 µM and the TGI (HOP-62 NSCLC) was 15.7 µM. It also gave a GI50 (HCT-116 colon) of 1.1 µM, a TGI (HCT-116 colon) of 10.2 µM and a GI50 (NCI-H522 lung) of 0.403 µM. The TGI (NCI-H522 lung) was 5.56 µM, the GI50 (SK-MEL-5 melanoma) was 2.46 µM and the TGI (SK-MEL-5 melanoma) was 14.1 µM. The GI50 (ACHN renal) was 3.2 µM, the TGI (ACHN renal) was 12 µM and the GI50 (MDA-MB-468 breast) was 0.657 µM. For the same molecule, the TGI (MDA-MB-468 breast) was 6.23 µM, the GI50 (LOX IMVI melanoma) was 2.82 µM and the TGI (LOX IMVI melanoma) was 13.9 µM. The GI50 (NCI-H23 lung) was 5.33 µM, the TGI (NCI-H23 lung) was 21.1 µM and the GI50 (KM12 colon) was 0.977 µM. The TGI (KM12 colon) was 16.8 µM, the GI50 (BT-549 breast) was 0.81 µM and the TGI (BT-549 breast) was 10.7 µM. For the same molecule, the GI50 (HOP-92 NSCLC) was 1.98 µM, the TGI (HOP-92 NSCLC) was 6.38 µM and the GI50 (HL-60(TB) leukemia) was 0.854 µM. For the same molecule, the TGI (HL-60(TB) leukemia) was 11.1 µM, the GI50 (IGROV1 ovarian) was 4.91 µM and the TGI (IGROV1 ovarian) was 21.6 µM. It also gave a GI50 (SK-MEL-28 melanoma) of 6.07 µM, a TGI (SK-MEL-28 melanoma) of 21 µM and a GI50 (OVCAR-5 ovarian) of 4.58 µM. The TGI (OVCAR-5 ovarian) was 17.7 µM, the GI50 (NCI/ADR-RES ovarian) was 6.24 µM and the TGI (NCI/ADR-RES ovarian) was 24.2 µM. It also gave a GI50 (HCT-15 colon) of 1.79 µM, a TGI (HCT-15 colon) of 12.4 µM and a GI50 (MOLT-4 leukemia) of 2.63 µM. It also gave a TGI (MOLT-4 leukemia) of 26 µM, a GI50 (OVCAR-8 ovarian) of 10.6 µM and a TGI (OVCAR-8 ovarian) of 27.2 µM. It also gave a GI50 (HS 578T breast) of 2.33 µM, a TGI (HS 578T breast) of 11.9 µM and a GI50 (SN12C renal) of 3.85 µM. The TGI (SN12C renal) was 15.1 µM, the GI50 (SF-268 CNS) was 3.56 µM and the TGI (SF-268 CNS) was 20 µM. For the same molecule, the GI50 (OVCAR-4 ovarian) was 2.88 µM, the TGI (OVCAR-4 ovarian) was 10.6 µM and the GI50 (SW-620 colon) was 3.1 µM. It also gave a TGI (SW-620 colon) of 21.8 µM.
